Experimental data: publication PMC10418426, “A Comprehensive Technology Platform for the Rapid Discovery of Peptide Inhibitors against SARS-CoV-2 Pseudovirus Infection” (International Journal of Molecular Sciences, 2023)
Starred links: 1 amine or outer side, 2 acyl side, 3 side chain; linkers in the order of their positions; H or OH if unused. Positions of bridges follow the written chain, without caps; N, C: chain ends. Residues, ends and D or L forms follow the SMILES beside them. mXylylene = c1cc(C[*:1])cc(C[*:2])c1

Tested on: HEK293-ACE2 cells
Details: 1 to 100 μM, 24 h treatment plus 24 h in fresh medium, absorbance 560 nm

Question: Which “effect on cell viability (MTT)” value does the source give for `C[C@@H](O)[C@@H]1NC(=O)[C@@H]2CCCN2C(=O)[C@H](CCC(N)=O)NC(=O)[C@@H](N)CSCc2cccc(c2)CSC[C@@H](C(N)=O)NC(=O)[C@H](CCC(N)=O)NC(=O)[C@H](Cc2c[nH]c3ccccc23)NC(=O)CNC(=O)[C@H](CCCCN)NC(=O)CNC(=O)[C@H](CC(N)=O)NC1=O` [c9_05] (H-CQPTNGKGWQC-NH2; linker 1-11 via mXylylene) here?
Answer: did not cause any significant decrease in cell viability
